The values below come from ChEMBL document CHEMBL3393039, “Anthranilic acid derivatives as nuclear receptor modulators--development of novel PPAR selective and dual PPAR/FXR ligands” (Bioorg Med Chem, 2015).

Experiment [1] has as its target T1, Bile acid receptor (Homo sapiens) (UniProt Q96RI1).
T1 sequence (whole entry): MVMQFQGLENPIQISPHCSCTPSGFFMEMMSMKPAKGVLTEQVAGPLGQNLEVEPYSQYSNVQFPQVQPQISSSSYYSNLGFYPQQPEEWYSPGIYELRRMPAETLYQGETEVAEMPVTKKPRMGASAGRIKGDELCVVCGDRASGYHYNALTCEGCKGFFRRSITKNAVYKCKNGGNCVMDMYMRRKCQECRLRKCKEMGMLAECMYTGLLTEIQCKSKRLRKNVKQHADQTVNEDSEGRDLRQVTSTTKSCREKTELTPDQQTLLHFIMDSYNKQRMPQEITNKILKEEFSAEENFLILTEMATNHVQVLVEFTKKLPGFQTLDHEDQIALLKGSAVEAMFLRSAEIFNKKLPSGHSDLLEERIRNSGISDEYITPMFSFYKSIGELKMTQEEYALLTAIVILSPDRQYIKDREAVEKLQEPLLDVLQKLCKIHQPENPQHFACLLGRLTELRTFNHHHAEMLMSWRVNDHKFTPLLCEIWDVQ
In words: Transactivation of human FXR expressed in human HeLa cells at 30 uM incubated for 24 hrs by luciferase reporter gene assay. The class given is cell-based. (Reporter assays use an easily measured gene product as a stand-in for the process of interest.)

The target of experiment [2] is T2, Peroxisome proliferator-activated receptor alpha (Homo sapiens) (UniProt Q07869).
T2 sequence (whole entry): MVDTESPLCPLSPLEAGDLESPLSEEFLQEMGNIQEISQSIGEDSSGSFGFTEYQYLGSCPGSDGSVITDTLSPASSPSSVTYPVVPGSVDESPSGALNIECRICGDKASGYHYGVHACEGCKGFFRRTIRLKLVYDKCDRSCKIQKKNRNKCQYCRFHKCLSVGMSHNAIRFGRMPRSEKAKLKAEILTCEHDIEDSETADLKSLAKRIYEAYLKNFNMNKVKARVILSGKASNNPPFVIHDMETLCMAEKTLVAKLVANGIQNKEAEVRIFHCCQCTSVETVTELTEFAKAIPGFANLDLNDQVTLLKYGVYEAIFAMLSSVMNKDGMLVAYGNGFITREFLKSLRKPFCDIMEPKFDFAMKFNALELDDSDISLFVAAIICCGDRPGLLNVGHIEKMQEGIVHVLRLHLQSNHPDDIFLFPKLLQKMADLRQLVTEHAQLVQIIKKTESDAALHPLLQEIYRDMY
In words: Transactivation of Gal4-tagged PPARalpha ligand binding domain (unknown origin) expressed in COS7 cells at 30 uM measured after overnight incubation by luciferase reporter gene assay. Format: cell-based. The settings on record: COS-7.

Experiment [3] deals with T3, Peroxisome proliferator-activated receptor gamma (Homo sapiens) (UniProt P37231).
T3 sequence (whole entry): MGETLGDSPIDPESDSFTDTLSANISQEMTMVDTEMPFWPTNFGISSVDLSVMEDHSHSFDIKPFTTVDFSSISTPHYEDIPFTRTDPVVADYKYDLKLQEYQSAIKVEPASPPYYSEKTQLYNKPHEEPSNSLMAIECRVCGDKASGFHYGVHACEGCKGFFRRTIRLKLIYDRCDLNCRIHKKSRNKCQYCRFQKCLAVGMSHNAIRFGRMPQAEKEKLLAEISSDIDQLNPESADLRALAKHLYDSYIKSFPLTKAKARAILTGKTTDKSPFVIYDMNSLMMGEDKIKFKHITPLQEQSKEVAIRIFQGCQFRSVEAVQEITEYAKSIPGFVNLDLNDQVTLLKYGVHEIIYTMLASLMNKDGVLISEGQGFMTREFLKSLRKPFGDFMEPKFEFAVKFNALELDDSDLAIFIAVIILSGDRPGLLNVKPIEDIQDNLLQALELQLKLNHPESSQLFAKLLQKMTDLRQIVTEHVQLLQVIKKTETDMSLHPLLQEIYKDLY
The experiment in a line: Transactivation of Gal4-tagged PPARgamma ligand binding domain (unknown origin) expressed in COS7 cells at 30 uM measured after overnight incubation by luciferase reporter gene assay. The settings on record: COS-7. Format: cell-based.

Experiment [4] has as its target T4, Peroxisome proliferator-activated receptor delta (Homo sapiens) (UniProt Q03181).
T4 sequence (whole entry): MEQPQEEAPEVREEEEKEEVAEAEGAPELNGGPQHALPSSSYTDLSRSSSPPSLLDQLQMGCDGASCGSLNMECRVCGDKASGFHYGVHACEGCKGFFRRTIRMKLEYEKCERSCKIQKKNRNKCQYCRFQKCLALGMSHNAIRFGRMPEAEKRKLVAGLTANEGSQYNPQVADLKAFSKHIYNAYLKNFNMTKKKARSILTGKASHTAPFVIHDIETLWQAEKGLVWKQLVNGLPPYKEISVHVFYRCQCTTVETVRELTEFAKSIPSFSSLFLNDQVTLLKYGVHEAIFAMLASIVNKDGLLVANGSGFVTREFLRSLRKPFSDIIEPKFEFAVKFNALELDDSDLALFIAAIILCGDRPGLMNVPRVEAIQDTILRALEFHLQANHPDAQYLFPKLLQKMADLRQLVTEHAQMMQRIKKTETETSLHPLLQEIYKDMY
In words: Transactivation of Gal4-tagged PPARdelta ligand binding domain (unknown origin) expressed in COS7 cells at 30 uM measured after overnight incubation by luciferase reporter gene assay. Format: cell-based. The conditions noted are these: COS-7.

Experiment [5] concerns the target T1, Bile acid receptor (Homo sapiens). The experiment in a line: Transactivation of human FXR expressed in human HeLa cells incubated for 24 hrs by luciferase reporter gene assay relative to GW4064. The class given is cell-based.
Experiment [6] deals with T5, Peroxisome proliferator-activated receptor alpha (Homo sapiens, UniProt Q07869).
T5 sequence (Q07869 whole entry): T2 sequence (whole entry)
In words: Transactivation of Gal4-tagged PPARalpha ligand binding domain (unknown origin) expressed in COS7 cells measured after overnight incubation by luciferase reporter gene assay. The class given is cell-based, COS-7.

Experiment [7] addresses T6, Peroxisome proliferator-activated receptor gamma (Homo sapiens, UniProt P37231).
T6 sequence (P37231 whole entry): T3 sequence (whole entry)
The experiment in a line: Transactivation of Gal4-tagged PPARgamma ligand binding domain (unknown origin) expressed in COS7 cells measured after overnight incubation by luciferase reporter gene assay. Format: cell-based, COS-7.

The target in experiment [8] is T3, Peroxisome proliferator-activated receptor gamma (Homo sapiens). The experiment in a line: Transactivation of Gal4-tagged PPARgamma ligand binding domain (unknown origin) expressed in COS7 cells measured after overnight incubation by luciferase reporter gene assay relative to piaglitazone. Format: cell-based. The conditions noted are these: Chlorocebus aethiops; COS-7.

Experiment [9] has as its target T7, Peroxisome proliferator-activated receptor delta (Homo sapiens, UniProt Q03181).
T7 sequence (Q03181 whole entry): T4 sequence (whole entry)
The experiment in a line: Transactivation of Gal4-tagged PPARdelta ligand binding domain (unknown origin) expressed in COS7 cells measured after overnight incubation by luciferase reporter gene assay. The class given is cell-based, COS-7.

The target of experiment [10] is T4, Peroxisome proliferator-activated receptor delta (Homo sapiens). In words: Transactivation of Gal4-tagged PPARdelta ligand binding domain (unknown origin) expressed in COS7 cells measured after overnight incubation by luciferase reporter gene assay relative to L165,041. The settings on record: Chlorocebus aethiops; COS-7. Format: cell-based.

The source made the active and inactive calls. The rule behind the calls is not given here.

Consider `CN(C(=O)c1ccc2ccccc2c1)c1ccccc1C(=O)NCCCC(=O)O`, for which the outcome in [1], in [2], in [3] and in [4] was inactive.
As for `COc1ccc(C(=O)O)cc1NC(=O)c1ccccc1NC(=O)c1ccc(C(C)(C)C)cc1`, the max activation in experiment [5] is 15%; in experiment [8], 154%. Also, the EC50 (commonly the midpoint of the concentration-response curve) in experiment [6] worked out at 2.9 µM; in [7], 4.5 µM. Also, the result in [4] was inactive.
As to `O=C(O)c1cccc(NC(=O)c2ccccc2NC(=O)c2ccc(C(F)(F)F)c(F)c2)c1`, the EC50 in experiment [9] is 3 µM; in experiment [6], 2.2 µM; in experiment [7] it was 6.9 µM. Further, the max activation in [5] is 32%; in experiment [10], 37%; in [8] it was 240%.
With `O=C(O)c1cccc(NC(=O)c2ccccc2NC(=O)c2ccc3ccccc3c2)c1`, the EC50 worked out at 4.7 µM in experiment [9], 1.96 µM in [6] and 5.5 µM in experiment [7]. Moreover, the max activation in experiment [10] was found to be 51%; in experiment [8] it was 126%.
`COc1cccc(NC(=O)c2ccccc2NC(=O)c2ccc(C(C)(C)C)cc2)c1`: in experiment [5], the max activation turned out to be 13%. Besides, the outcome in [2], in [3] and in experiment [4] was inactive.
`CC(C)(C)c1ccc(C(=O)Nc2ccccc2C(=O)NCCCC(=O)O)cc1`: the outcome in experiment [2], in experiment [3] and in [4] was inactive.
Consider `O=C(O)c1ccc(NC(=O)c2ccccc2NC(=O)c2ccc3ccccc3c2)cc1`, for which the result in experiment [2] and in [4] was inactive. In addition, in [7], a half-maximal response (EC50) required 21 µM. This compound also yielded a max activation in experiment [8] of 639%.
With `CC(C)(C)c1ccc(C(=O)Nc2ccccc2C(=O)Nc2cccc(C#N)c2)cc1`, the max activation in [5] was 18%. Further, the result in experiment [2], in [3] and in [4] was inactive.
`CC(C)(C)c1ccc(C(=O)Nc2ccccc2C(=O)Nc2ccc(Cl)c(C(=O)O)c2)cc1`: the max activation came out at 19% in [5] and 98% in [8]. The EC50 stood at 9.1 µM in [6] and 5.4 µM in experiment [7]. In experiment [4], the result was inactive.
For `CC(C)(C)c1ccc(C(=O)Nc2ccccc2C(=O)Nc2cccc(C(=O)O)c2)cc1` the same measures were 9.4%, 348%, 1.3 µM, 3.9 µM and “inactive”.
For the compound `O=C(O)CCCNC(=O)c1ccccc1NC(=O)c1cccc(-c2ccccc2)c1`, the outcome in experiment [1] and in [4] was inactive. In addition, the EC50 in experiment [6] is 10 µM; in experiment [7], 37 µM. The compound further yielded a max activation in experiment [8] of 229%.
As for `O=C(O)CCCNC(=O)c1ccccc1NC(=O)c1ccccc1-c1ccccc1`, the outcome in experiment [1], in experiment [2] and in experiment [4] was inactive. This compound also showed an EC50 in [7] of 23 µM. In experiment [8], this compound registered a max activation of 45%.
`O=C(O)c1cccc(NC(=O)c2ccccc2NC(=O)c2ccc3c(c2)OCO3)c1`: the figures for the max activation in experiment [5] and in experiment [8] were 12% and 221%, respectively. Further, the EC50 is 19 µM in experiment [6] and 25 µM in experiment [7]. The result in experiment [4] was inactive.
With `CC(C)(C)c1ccc(C(=O)Nc2ccccc2C(=O)Nc2cccc(CC(=O)O)c2)cc1`, the values for the EC50 in experiment [9], in experiment [6] and in experiment [7] were 5.4 µM, 4.4 µM and 6.2 µM, respectively. Besides, the max activation in experiment [5] turned out to be 26%; in experiment [10], 46%; in experiment [8] it was 121%.
In the case of `O=C(O)CCCCNC(=O)c1ccccc1NC(=O)c1ccc2ccccc2c1`, the outcome in experiment [2] and in experiment [4] was inactive. Moreover, the response in experiment [7] was half-maximal at 26 µM (EC50). The compound further had a max activation in [8] of 269%.
As for `Cc1c(NC(=O)c2ccccc2NC(=O)c2ccc(C(C)(C)C)cc2)cccc1C(=O)O`, the max activation stood at 19% in experiment [5] and 70% in experiment [8]. For the same compound, the result in [2] and in experiment [4] was inactive. In [7], a half-maximal effect (EC50) was put at 13.5 µM.
As for `O=C(O)c1cccc(NC(=O)c2ccccc2NC(=O)c2ccc(Br)cc2)c1`, the EC50 in experiment [9] amounted to 12 µM; in experiment [6] it was 3.6 µM; in experiment [7], 4.5 µM. Besides, the max activation was found to be 14.3% in experiment [5], 44% in experiment [10] and 58% in experiment [8].
For the compound `O=C(O)CCCNC(=O)c1ccccc1NC(=O)c1ccc(-c2ccccc2)cc1`, the outcome in [1], in [2] and in experiment [4] was inactive. The EC50 in experiment [7] came to 13 µM. In [8], the max activation was determined as 135%.
With `O=C(O)c1cccc(NC(=O)c2ccccc2NC(=O)c2ccc(C(F)(F)F)cc2)c1`, the results for the EC50 in [9], in experiment [6] and in experiment [7] were 3.2 µM, 5.8 µM and 8.5 µM, respectively. Also, the max activation in experiment [5] came out at 26%; in [10], 46%; in experiment [8] it was 384%.
Turning to `O=C(O)CCCNC(=O)c1ccccc1NC(=O)c1ccc2ccccc2c1`, the outcome in experiment [2] and in experiment [4] was inactive. The compound further returned an EC50 in [7] of 18.1 µM. This compound also registered a max activation in [8] of 432%.
As for `COc1ccc(NC(=O)c2ccccc2NC(=O)c2ccc(C(C)(C)C)cc2)cc1C(=O)O`, the max activation in [5] was determined as 19%; in experiment [8], 96%. Further, the EC50 in experiment [6] was 0.74 µM; in experiment [7], 4.4 µM. In experiment [4], the result was inactive.
For `CC(C)(C)c1ccc(C(=O)Nc2ccccc2C(=O)Nc2ccc(Br)c(C(=O)O)c2)cc1` the same measures were 16%, 82%, 4.1 µM, 6.3 µM and “inactive”.
